# Laboratory results published in patent US20260365670A1, “EGFR INHIBITORS AND USES THEREOF” (DIZAL (JIANGSU) PHARMACEUTICAL CO., LTD., priority 2022, published 2026).
# Read-outs that look alike come from different tables or passages of the source.
# Assays:
# A-431 = experiment: Cell proliferation assay, A-431 cells (GI50, Table 6); format: cell-based
# EGFR (C797S L858R) = target: T1, EGFR (C797S L858R) (Homo sapiens, UniProt P00533, C797S/L858R); experiment: Inhibition of EGFR (C797S L858R) biochemical enzymatic activity (HTRF); details: EGFR (C797S L858R), 1 mM ATP, 1 h at room temperature
# T1 construct: purchased signalchem
# Procedure, shortened: (§1)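 Read-out is the HTRF 665/615 nm ratio (excitation 320 nm), taken as proportional to kinase activity after a 1 h room-temperature reaction with 1 mM ATP and 1 μM biotinylated TK substrate. IC50 values derive from four-parameter logistic fitting.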
# EGFR wild type = target: T2, EGFR wild type (Homo sapiens, UniProt P00533); experiment: Inhibition of EGFR wild type biochemical enzymatic activity (HTRF); details: EGFR wild type, 1 mM ATP, 1 h at room temperature
# T2 construct: purchased Carna Bio
# Procedure, shortened: as §1
# EGFR L858R/T790M = target: T3, EGFR L858R/T790M (Homo sapiens, UniProt P00533, L858R/T790M); experiment: Inhibition of EGFR L858R/T790M biochemical enzymatic activity (HTRF); details: EGFR L858R/T790M, 1 mM ATP, 1 h at room temperature
# T3 construct: purchased Carna Bio
# Procedure, shortened: as §1
# [1] = system: Ba/F3 cells expressing EGFR mutations; experiment: Cell proliferation assay, Ba/F3 cells expressing EGFR mutations (CellTiter-Glo, 72 hours); format: cell-based
# Procedure, shortened: (§2)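 Seed Ba/F3 at 5000 cells/well and PC-9 at 500 cells/well (10% FBS RPMI1640); incubate overnight; add compound dilution series; read a G0 plate; incubate; read G3; GI50 from best-fit curve.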
# EGFR (d746-750 C797S) = target: T4, EGFR (d746-750 C797S) (Homo sapiens, UniProt P00533, C797S/DEL746-750); experiment: Inhibition of EGFR (d746-750 C797S) biochemical enzymatic activity (HTRF); details: EGFR (d746-750 C797S), 1 mM ATP, 1 h at room temperature
# T4 construct: purchased signalchem
# Procedure, shortened: as §1
# EGFR Exon19Del/T790M = target: T5, EGFR Exon19Del/T790M (Homo sapiens, UniProt P00533, DEL746-750/T790M); experiment: Inhibition of EGFR Exon19Del/T790M biochemical enzymatic activity (HTRF); details: EGFR Exon19Del/T790M, 1 mM ATP, 1 h at room temperature
# T5 construct: purchased Carna Bio
# Procedure, shortened: as §1
# EGFR L858R = target: T6, EGFR L858R (Homo sapiens, UniProt P00533, L858R); experiment: Inhibition of EGFR L858R biochemical enzymatic activity (HTRF); details: 1 mM ATP, 1 h at room temperature
# T6 construct: purchased Carna Bio
# Procedure, shortened: as §1
# PC-9 = experiment: Cell proliferation assay, PC-9 cells (CellTiter-Glo, 72 hours); format: cell-based; details: PC9 cells, read-out: GI50 PC9
# Procedure, shortened: as §2
# EGFR[T790M/C797S/L858R] = target: T7, EGFR[T790M/C797S/L858R] (Homo sapiens, UniProt P00533, C797S/L858R/T790M); experiment: Inhibition of EGFR[T790M/C797S/L858R] biochemical enzymatic activity (HTRF); details: EGFR[T790M/C797S/L858R], 1 mM ATP, 1 h at room temperature
# T7 construct: purchased Carna Bio
# Procedure, shortened: as §1
# EGFR Exon19Del = target: T8, EGFR Exon19Del (Homo sapiens, UniProt P00533, DEL746-750); experiment: Inhibition of EGFR Exon19Del biochemical enzymatic activity (HTRF); details: 1 mM ATP, 1 h at room temperature
# T8 construct: purchased Carna Bio
# Procedure, shortened: as §1
# [2] = target: T9, EGFR[T790M/C797S/d746-750] (Homo sapiens, UniProt P00533, C797S/DEL746-750/T790M); experiment: Inhibition of EGFR[T790M/C797S/d746-750] biochemical enzymatic activity (HTRF); details: 1 mM ATP, 1 h at room temperature
# T9 construct: purchased Carna Bio
# Procedure, shortened: as §1
# [3] = Homo sapiens, A-431, A-431 cells
# [4] = BaF3 cells, EGFR DEL19 - C797S, read-out: GI50 DEL19 - C797S/BaF3
# [5] = BaF3 cells, EGFR DEL19 - T790-C797S, read-out: GI50 DEL19 - T790-C797S/BaF3
# [6] = BaF3 cells, EGFR L858R - C797S, read-out: GI50 L858R - C797S/BaF3
# [7] = BaF3 cells, EGFR L858R - T790-C797S, read-out: GI50 L858R - T790-C797S/BaF3
# [8] = BaF3 cells, EGFR L858R - T790M, read-out: GI50 L858R - T790M/BaF3
# [9] = BaF3 cells, EGFR L858R, read-out: GI50 L858R/BaF3
# [10] = EGFR DEL19 - T790M, read-out: GI50 DEL19 - T790M
# [11] = Mus musculus, BaF3, 72 h, BaF3 cells, EGFR DEL19 - C797S, read-out: GI50 DEL19 - C797S/BaF3
# [12] = Mus musculus, BaF3, 72 h, BaF3 cells, EGFR DEL19 - T790-C797S, read-out: GI50 DEL19 - T790-C797S/BaF3
# [13] = Mus musculus, BaF3, 72 h, BaF3 cells, EGFR L858R - C797S, read-out: GI50 L858R - C797S/BaF3
# [14] = Mus musculus, BaF3, 72 h, BaF3 cells, EGFR L858R - T790-C797S, read-out: GI50 L858R - T790-C797S/BaF3
# [15] = Mus musculus, BaF3, 72 h, BaF3 cells, EGFR L858R - T790M, read-out: GI50 L858R - T790M/BaF3
# [16] = Mus musculus, BaF3, 72 h, BaF3 cells, EGFR L858R, read-out: GI50 L858R/BaF3
# [17] = Mus musculus, BaF3, 72 h, EGFR DEL19 - T790M, read-out: GI50 DEL19 - T790M
# [18] = read-out: IC50 @T790M- C797S - L858R
# [19] = EGFR Exon19Del, read-out: IC50 @Del19
# [20] = EGFR[T790M/C797S/d746-750], read-out: IC50 @T790M - C797S - Del19
# T6 sequence (P00533 25-1210 L858R): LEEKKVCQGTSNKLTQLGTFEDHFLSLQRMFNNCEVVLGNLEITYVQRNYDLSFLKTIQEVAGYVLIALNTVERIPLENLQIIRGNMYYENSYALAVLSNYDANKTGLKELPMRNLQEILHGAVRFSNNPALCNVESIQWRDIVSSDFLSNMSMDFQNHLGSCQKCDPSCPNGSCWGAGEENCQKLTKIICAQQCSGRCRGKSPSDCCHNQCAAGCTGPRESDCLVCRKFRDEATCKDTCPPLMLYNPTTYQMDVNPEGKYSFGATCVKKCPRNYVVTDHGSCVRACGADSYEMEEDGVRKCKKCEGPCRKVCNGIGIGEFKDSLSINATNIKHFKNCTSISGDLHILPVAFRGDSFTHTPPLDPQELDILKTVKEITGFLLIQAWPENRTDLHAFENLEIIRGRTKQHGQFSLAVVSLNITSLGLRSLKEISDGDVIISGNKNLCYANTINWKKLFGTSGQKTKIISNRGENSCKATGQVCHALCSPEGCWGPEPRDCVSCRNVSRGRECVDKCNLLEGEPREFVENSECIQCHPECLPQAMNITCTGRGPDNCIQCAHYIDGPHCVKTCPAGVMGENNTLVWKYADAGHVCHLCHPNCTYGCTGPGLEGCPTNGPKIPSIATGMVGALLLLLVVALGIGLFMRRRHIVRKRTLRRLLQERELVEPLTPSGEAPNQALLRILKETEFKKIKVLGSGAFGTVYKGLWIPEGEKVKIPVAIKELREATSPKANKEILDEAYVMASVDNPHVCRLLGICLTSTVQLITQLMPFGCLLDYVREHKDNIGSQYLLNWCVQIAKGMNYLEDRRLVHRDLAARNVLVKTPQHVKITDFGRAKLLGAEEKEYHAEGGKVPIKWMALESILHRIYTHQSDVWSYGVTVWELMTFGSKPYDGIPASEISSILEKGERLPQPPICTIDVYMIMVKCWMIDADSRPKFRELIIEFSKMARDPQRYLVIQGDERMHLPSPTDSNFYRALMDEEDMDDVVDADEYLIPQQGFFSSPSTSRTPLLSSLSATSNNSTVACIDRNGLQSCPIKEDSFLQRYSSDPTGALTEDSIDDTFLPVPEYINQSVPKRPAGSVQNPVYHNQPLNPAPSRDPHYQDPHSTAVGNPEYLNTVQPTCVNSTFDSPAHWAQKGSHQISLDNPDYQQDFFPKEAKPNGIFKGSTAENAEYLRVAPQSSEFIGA
# T1 sequence (P00533 25-1210 C797S/L858R): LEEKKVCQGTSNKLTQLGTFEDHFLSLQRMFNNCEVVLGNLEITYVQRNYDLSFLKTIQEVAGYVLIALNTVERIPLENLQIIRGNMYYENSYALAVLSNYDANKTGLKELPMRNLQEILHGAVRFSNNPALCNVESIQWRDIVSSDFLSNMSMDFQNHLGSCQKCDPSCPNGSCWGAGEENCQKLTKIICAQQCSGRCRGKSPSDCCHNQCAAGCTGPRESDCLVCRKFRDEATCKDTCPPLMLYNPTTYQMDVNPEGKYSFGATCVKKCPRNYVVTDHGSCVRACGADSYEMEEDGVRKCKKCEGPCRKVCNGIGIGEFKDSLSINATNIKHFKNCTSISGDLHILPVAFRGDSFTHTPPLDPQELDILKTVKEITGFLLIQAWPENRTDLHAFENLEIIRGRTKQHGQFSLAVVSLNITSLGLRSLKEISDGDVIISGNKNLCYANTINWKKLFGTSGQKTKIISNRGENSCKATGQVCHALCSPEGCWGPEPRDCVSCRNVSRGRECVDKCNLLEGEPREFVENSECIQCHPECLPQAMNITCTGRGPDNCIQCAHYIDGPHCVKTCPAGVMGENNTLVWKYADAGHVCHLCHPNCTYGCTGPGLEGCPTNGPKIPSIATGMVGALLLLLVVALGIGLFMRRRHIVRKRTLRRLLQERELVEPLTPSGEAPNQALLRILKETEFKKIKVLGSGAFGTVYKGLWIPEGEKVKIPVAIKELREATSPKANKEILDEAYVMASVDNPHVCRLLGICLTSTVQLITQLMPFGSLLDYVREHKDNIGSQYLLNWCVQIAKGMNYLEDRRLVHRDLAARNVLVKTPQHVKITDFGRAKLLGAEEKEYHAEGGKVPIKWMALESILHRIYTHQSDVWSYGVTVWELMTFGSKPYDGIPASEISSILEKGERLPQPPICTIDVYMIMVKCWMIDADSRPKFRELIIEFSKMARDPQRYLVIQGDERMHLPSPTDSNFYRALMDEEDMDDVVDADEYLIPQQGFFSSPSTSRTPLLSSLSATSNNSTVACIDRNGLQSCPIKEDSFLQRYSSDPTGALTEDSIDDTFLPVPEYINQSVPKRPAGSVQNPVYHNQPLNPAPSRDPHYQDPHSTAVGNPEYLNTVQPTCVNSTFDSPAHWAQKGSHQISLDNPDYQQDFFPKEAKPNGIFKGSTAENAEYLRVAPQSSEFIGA
# T5 sequence (P00533 with tags, fused parts or gaps DEL746-750/T790M limits assumed): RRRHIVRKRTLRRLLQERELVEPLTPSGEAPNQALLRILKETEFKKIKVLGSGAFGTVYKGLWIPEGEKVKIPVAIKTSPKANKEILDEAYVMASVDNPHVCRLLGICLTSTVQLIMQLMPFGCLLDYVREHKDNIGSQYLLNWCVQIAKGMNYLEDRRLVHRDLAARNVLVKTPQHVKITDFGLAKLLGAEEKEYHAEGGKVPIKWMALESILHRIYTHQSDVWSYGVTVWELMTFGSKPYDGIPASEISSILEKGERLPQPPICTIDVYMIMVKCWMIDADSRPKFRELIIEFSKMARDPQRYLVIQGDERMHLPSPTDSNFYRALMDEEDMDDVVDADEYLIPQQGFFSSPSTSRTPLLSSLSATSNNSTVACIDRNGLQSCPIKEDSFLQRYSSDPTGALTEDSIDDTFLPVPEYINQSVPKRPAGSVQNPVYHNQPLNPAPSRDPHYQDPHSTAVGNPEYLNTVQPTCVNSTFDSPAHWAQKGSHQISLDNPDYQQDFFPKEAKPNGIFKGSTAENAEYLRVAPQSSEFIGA
# T9 sequence (P00533 with tags, fused parts or gaps DEL746-750/T790M/C797S limits assumed): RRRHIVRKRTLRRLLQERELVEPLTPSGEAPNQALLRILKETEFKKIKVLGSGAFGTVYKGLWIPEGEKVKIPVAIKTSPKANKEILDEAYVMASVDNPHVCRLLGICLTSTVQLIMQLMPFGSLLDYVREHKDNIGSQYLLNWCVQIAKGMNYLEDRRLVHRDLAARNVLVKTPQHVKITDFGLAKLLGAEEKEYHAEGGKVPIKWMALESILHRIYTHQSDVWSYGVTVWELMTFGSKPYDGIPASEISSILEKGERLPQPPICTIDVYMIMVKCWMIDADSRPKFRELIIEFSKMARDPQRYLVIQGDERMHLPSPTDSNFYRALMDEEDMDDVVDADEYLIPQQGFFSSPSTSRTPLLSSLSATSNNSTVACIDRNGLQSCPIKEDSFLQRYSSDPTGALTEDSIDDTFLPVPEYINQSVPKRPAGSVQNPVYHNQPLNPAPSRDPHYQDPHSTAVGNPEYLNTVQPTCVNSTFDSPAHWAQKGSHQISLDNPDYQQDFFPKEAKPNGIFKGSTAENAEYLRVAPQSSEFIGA
# T2 sequence (P00533 25-1210): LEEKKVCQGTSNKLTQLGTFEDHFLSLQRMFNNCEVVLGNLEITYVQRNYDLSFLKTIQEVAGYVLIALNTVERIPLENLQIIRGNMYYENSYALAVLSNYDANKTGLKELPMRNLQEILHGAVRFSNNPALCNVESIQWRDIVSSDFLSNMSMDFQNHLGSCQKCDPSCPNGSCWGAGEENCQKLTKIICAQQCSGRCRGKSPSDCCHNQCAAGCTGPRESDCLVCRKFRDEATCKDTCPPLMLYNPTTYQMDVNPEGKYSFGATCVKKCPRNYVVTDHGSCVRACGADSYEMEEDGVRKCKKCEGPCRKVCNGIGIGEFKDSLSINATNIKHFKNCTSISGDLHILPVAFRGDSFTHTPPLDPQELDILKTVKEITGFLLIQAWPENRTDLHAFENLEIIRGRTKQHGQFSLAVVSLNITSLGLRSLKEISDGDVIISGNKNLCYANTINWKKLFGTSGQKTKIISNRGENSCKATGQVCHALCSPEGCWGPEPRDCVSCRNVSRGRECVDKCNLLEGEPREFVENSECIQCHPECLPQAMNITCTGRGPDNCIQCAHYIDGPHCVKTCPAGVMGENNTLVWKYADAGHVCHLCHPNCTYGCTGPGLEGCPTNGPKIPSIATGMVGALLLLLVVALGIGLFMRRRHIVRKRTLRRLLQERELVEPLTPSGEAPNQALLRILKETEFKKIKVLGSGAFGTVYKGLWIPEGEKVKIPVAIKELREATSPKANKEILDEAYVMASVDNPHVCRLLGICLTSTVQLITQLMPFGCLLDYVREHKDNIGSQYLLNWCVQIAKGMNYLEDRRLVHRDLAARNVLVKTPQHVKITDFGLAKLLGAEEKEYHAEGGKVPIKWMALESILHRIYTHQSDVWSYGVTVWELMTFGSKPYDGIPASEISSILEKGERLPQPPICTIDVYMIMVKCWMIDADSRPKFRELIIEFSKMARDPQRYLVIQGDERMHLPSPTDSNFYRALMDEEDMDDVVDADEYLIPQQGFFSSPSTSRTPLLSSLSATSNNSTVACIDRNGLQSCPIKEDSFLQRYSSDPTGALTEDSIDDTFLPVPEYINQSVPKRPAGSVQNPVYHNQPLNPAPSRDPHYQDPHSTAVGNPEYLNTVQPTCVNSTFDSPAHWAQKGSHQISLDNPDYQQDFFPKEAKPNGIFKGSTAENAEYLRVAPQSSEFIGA
GI50 (A-431; [3]),"GI50 [1, 4]","GI50 [1, 5]",IC50 (EGFR (C797S L858R); read-out: IC50 @L858-C797S),IC50 (EGFR wild type; read-out: IC50 @WT),IC50 (EGFR L858R/T790M; read-out: IC50 @L858R-T790M),"GI50 [1, 11]","GI50 [1, 12]","GI50 [1, 13]","GI50 [1, 14]","GI50 [1, 15]","GI50 [1, 16]","GI50 [1, 17]",IC50 (EGFR (d746-750 C797S); read-out: IC50 @Del19-C797S),IC50 (EGFR Exon19Del/T790M; read-out: IC50 @Del19-T790M),IC50 (EGFR L858R; read-out: IC50 @L858R),"GI50 (PC-9; Homo sapiens, PC-9, 72 h)",IC50 (EGFR[T790M/C797S/L858R]; [18]),IC50 (EGFR Exon19Del; [19]),"IC50 [2, 20]",also measured,SMILES
333 nM,2 nM,2 nM,–,–,–,–,–,–,–,–,–,–,–,–,–,–,–,–,–,"IC50 (EGFR (C797S L858R); IC50 @L858-C797S): 4.4 nM; IC50 (EGFR wild type; IC50 @WT): 100 nM; IC50 (EGFR L858R/T790M; IC50 @L858R-T790M): 3.3 nM; GI50 [1, 6]: 6 nM; GI50 [1, 7]: 2 nM; GI50 [1, 8]: 2 nM; GI50 [1, 9]: 8 nM; GI50 [1, 10]: 2 nM; IC50 (EGFR (d746-750 C797S); IC50 @Del19-C797S): 2.2 nM; IC50 (EGFR Exon19Del/T790M; IC50 @Del19-T790M): 4.7 nM; IC50 (EGFR L858R; IC50 @L858R): 15 nM; GI50 (PC-9): 9 nM; IC50 (EGFR[T790M/C797S/L858R]; IC50 @T790M- C797S - L858R): 2.4 nM; IC50 (EGFR Exon19Del; IC50 @Del19, EGFR Exon19Del): 4.5 nM; IC50 ([2]; IC50 @T790M - C797S - Del19, EGFR[T790M/C797S/d746-750]): 2.3 nM","Cc1cc2cc(n1)-c1cnn(C)c1OCCN1CC3CCC(C3)(C1)n1c(nc3ccc(N4CCC(N(C)C)CC4)cc31)NC2=O (single isomer, unassigned) [Example B40B, 5-[4-(dimethylamino)piperidin-1-yl]-15,21-dimethyl-23-oxa-2,9,11,16,20,21,26-heptaazaheptacyclo[24.4.1.1^{1,28}.1^{13,17}.0^{2,10}.0^{3,8}.0^{18,22}]tritriaconta-3,5,7,9,13,15,17(33),18(22),19-nonaen-12-one]"
5380 nM,–,–,> 5000 nM,> 5000 nM,> 5000 nM,626 nM,269 nM,2440 nM,764 nM,2520 nM,3570 nM,441 nM,4320 nM,510 nM,> 5000 nM,1490 nM,> 5000 nM,> 5000 nM,401 nM,–,"Cc1cc2cc(n1)-c1cc(=O)n(C)cc1OCCC[C@@H](C)Cn1c(nc3ccccc31)NC2=O [Example B11, (12R)-5,12,27-Trimethyl-8-oxa-5,14,21,23,28-pentaazapentacyclo[23.3.1.0^{2,7}.0^{14,22}.0^{15,20}]nonacosa-1(29),2,6,15,17,19,21,25,27-nonaene-4,24-dione]"
1080 nM,–,–,11 nM,> 5000 nM,3.9 nM,1.4 nM,0.56 nM,5.6 nM,0.38 nM,1 nM,4 nM,0.79 nM,2.3 nM,2.5 nM,44 nM,12 nM,3 nM,3.7 nM,2.6 nM,–,"Cc1cc2cc(n1)-c1cnn(C)c1OCCC[C@@H](C)Cn1c(nc3ccc4c(c31)CCN(CCN(C)C)C4)NC2=O [Example B12, (11R)-18-[2-(dimethylamino)ethyl]-5,11,30-trimethyl-7-oxa-4,5,13,18,24,26,31-heptaazahexacyclo[26.3.1.0^{2,6}.0^{13,25}.0^{14,23}.0^{15,20}]dotriaconta-1(31),2(6),3,14,20,22,24,28(32),29-nonaen-27-one]"
3740 nM,–,–,131 nM,> 5000 nM,20 nM,10 nM,3 nM,69 nM,7 nM,13 nM,62 nM,4 nM,22 nM,9.9 nM,214 nM,75 nM,6.2 nM,28 nM,3 nM,–,Cc1cc2cc(n1)-c1cnn(C)c1OCCN1CC3CCC(CC3)(C1)n1c(nc3ccc(N(C)CCCN(C)C)cc31)NC2=O [Example B33]
6630 nM,–,–,185 nM,> 5000 nM,13 nM,10 nM,3 nM,108 nM,7 nM,20 nM,62 nM,3 nM,14 nM,9 nM,378 nM,121 nM,5 nM,30 nM,6 nM,–,Cc1cc2cc(n1)-c1cnn(C)c1OCCN1CC3CCC(CC3)(C1)n1c(nc3ccc(N4CC5CCN(C)C5C4)cc31)NC2=O (stereo not drawn) [Example B35]
426 nM,2 nM,2 nM,5.1 nM,392 nM,3 nM,–,–,–,–,–,–,–,1.7 nM,4.1 nM,26 nM,–,1.6 nM,4.4 nM,2.3 nM,"GI50 [1, 6]: 5 nM; GI50 [1, 7]: 2 nM; GI50 [1, 8]: 2 nM; GI50 [1, 9]: 12 nM; GI50 [1, 10]: 7 nM; GI50 (PC-9): 10 nM","CCN1CCN(c2ccc3nc4n(c3c2)C23CCC(CN(CCOc5c(cnn5C)-c5cc(cc(C)n5)C(=O)N4)C2)C3)CC1 (single isomer, unassigned) [Example B56B]"
–,163 nM,229 nM,> 5000 nM,> 5000 nM,> 5000 nM,–,–,–,–,–,–,–,3890 nM,> 5000 nM,> 5000 nM,–,> 5000 nM,> 5000 nM,> 5000 nM,"GI50 (A-431; A-431 cells): 8610 nM; GI50 [1, 6]: 828 nM; GI50 [1, 7]: 90 nM; GI50 [1, 8]: 307 nM; GI50 [1, 9]: 1560 nM; GI50 [1, 10]: 378 nM; GI50 (PC-9): 737 nM","Cc1cc2cc(n1)-c1cnn(C)c1OCCN1CC3CCC(C3)(C1)n1c(nc3ccc(N4CCN(C5COC5)CC4)cc31)NC2=O (single isomer, unassigned) [Example B58A]"
